Experiments:
[1] = test system: Liver; experiment: Biodistribution in BALB/c mouse liver at 7 to 8 KBq, iv after 120 mins; type: ADME, organism-based; settings: in vivo, 2 h
[2] = test system: Mus musculus; experiment: Biodistribution in BALB/c mouse lower body at 7 to 8 KBq, iv after 120 mins; type: ADME, organism-based; settings: in vivo, 2 h
[3] = test system: Cerebellum; experiment: Biodistribution in BALB/c mouse cerebellum at 7 to 8 KBq, iv after 15 mins; type: ADME, organism-based; settings: in vivo, 0.25 h
[4] = test system: Blood; experiment: Biodistribution in BALB/c mouse blood at 7 to 8 KBq, iv after 15 mins; type: ADME, organism-based; settings: in vivo, 0.25 h
[5] = test system: Kidney; experiment: Biodistribution in BALB/c mouse kidney at 7 to 8 KBq, iv after 120 mins; type: ADME, organism-based; settings: in vivo, 2 h
[6] = test system: Stomach; experiment: Biodistribution in BALB/c mouse stomach at 7 to 8 KBq, iv after 120 mins; type: ADME, organism-based; settings: in vivo, 2 h
[7] = test system: Stomach; experiment: Biodistribution in BALB/c mouse stomach at 7 to 8 KBq, iv after 60 mins; type: ADME, organism-based; settings: in vivo, 1 h
[8] = test system: Brain; experiment: Biodistribution in BALB/c mouse brain at 7 to 8 KBq, iv after 15 mins; type: ADME, organism-based; settings: in vivo, 0.25 h
[9] = test system: Heart; experiment: Biodistribution in BALB/c mouse heart at 7 to 8 KBq, iv after 120 mins; type: ADME, organism-based; settings: in vivo, 2 h
[10] = test system: Brain; experiment: Biodistribution in BALB/c mouse brain at 7 to 8 KBq, iv after 120 mins; type: ADME, organism-based; settings: in vivo, 2 h
[11] = test system: Intestine; experiment: Biodistribution in BALB/c mouse intestine at 7 to 8 KBq, iv after 15 mins; type: ADME, organism-based; settings: in vivo, 0.25 h
[12] = test system: Hippocampus; experiment: Biodistribution in BALB/c mouse hippocampus at 7 to 8 KBq, iv after 120 mins; type: ADME, organism-based; settings: in vivo, 2 h
[13] = test system: Medulla; experiment: Biodistribution in BALB/c mouse medulla at 7 to 8 KBq, iv after 60 mins; type: ADME, organism-based, Medulla of organ; settings: in vivo, 1 h
[14] = test system: Thalamus; experiment: Biodistribution in BALB/c mouse thalamus at 7 to 8 KBq, iv after 60 mins; type: ADME, organism-based; settings: in vivo, 1 h
[15] = test system: Cortex; experiment: Biodistribution in BALB/c mouse cortex at 7 to 8 KBq, iv after 15 mins; type: ADME, organism-based; settings: in vivo, 0.25 h
[16] = test system: Medulla; experiment: Biodistribution in BALB/c mouse medulla at 7 to 8 KBq, iv after 120 mins; type: ADME, organism-based, Medulla of organ; settings: in vivo, 2 h
[17] = test system: Pancreas; experiment: Biodistribution in BALB/c mouse pancreas at 7 to 8 KBq, iv after 15 mins; type: ADME, organism-based; settings: in vivo, 0.25 h
[18] = test system: Mus musculus; experiment: Biodistribution in BALB/c mouse upper body at 7 to 8 KBq, iv after 15 mins; type: ADME, organism-based; settings: in vivo, 0.25 h
[19] = test system: Cortex; experiment: Biodistribution in BALB/c mouse cortex at 7 to 8 KBq, iv after 60 mins; type: ADME, organism-based; settings: in vivo, 1 h
[20] = test system: Brain; experiment: Biodistribution in BALB/c mouse brain at 7 to 8 KBq, iv after 5 mins; type: ADME, organism-based; settings: in vivo
[21] = test system: Blood; experiment: Biodistribution in BALB/c mouse blood at 7 to 8 KBq, iv after 60 mins; type: ADME, organism-based; settings: in vivo, 1 h
[22] = test system: Cerebellum; experiment: Biodistribution in BALB/c mouse cerebellum at 7 to 8 KBq, iv after 5 mins; type: ADME, organism-based; settings: in vivo
[23] = test system: Cerebellum; experiment: Biodistribution in BALB/c mouse cerebellum at 7 to 8 KBq, iv after 120 mins; type: ADME, organism-based; settings: in vivo, 2 h
[24] = test system: Medulla; experiment: Biodistribution in BALB/c mouse medulla at 7 to 8 KBq, iv after 15 mins; type: ADME, organism-based, Medulla of organ; settings: in vivo, 0.25 h
[25] = test system: Thalamus; experiment: Biodistribution in BALB/c mouse thalamus at 7 to 8 KBq, iv after 15 mins; type: ADME, organism-based; settings: in vivo, 0.25 h
[26] = test system: Stomach; experiment: Biodistribution in BALB/c mouse stomach at 7 to 8 KBq, iv after 5 mins; type: ADME, organism-based; settings: in vivo
[27] = test system: Hippocampus; experiment: Biodistribution in BALB/c mouse hippocampus at 7 to 8 KBq, iv after 60 mins; type: ADME, organism-based; settings: in vivo, 1 h
[28] = test system: Thalamus; experiment: Biodistribution in BALB/c mouse thalamus at 7 to 8 KBq, iv after 5 mins; type: ADME, organism-based; settings: in vivo
[29] = test system: Mus musculus; experiment: Biodistribution in BALB/c mouse lower body at 7 to 8 KBq, iv after 15 mins; type: ADME, organism-based; settings: in vivo, 0.25 h
[30] = test system: Intestine; experiment: Biodistribution in BALB/c mouse intestine at 7 to 8 KBq, iv after 60 mins; type: ADME, organism-based; settings: in vivo, 1 h
[31] = test system: Cerebellum; experiment: Biodistribution in BALB/c mouse cerebellum at 7 to 8 KBq, iv after 60 mins; type: ADME, organism-based; settings: in vivo, 1 h
[32] = test system: Lung; experiment: Biodistribution in BALB/c mouse lung at 7 to 8 KBq, iv after 5 mins; type: ADME, organism-based; settings: in vivo
[33] = test system: Liver; experiment: Biodistribution in BALB/c mouse liver at 7 to 8 KBq, iv after 5 mins; type: ADME, organism-based; settings: in vivo
[34] = test system: Stomach; experiment: Biodistribution in BALB/c mouse stomach at 7 to 8 KBq, iv after 15 mins; type: ADME, organism-based; settings: in vivo, 0.25 h
[35] = test system: Intestine; experiment: Biodistribution in BALB/c mouse intestine at 7 to 8 KBq, iv after 120 mins; type: ADME, organism-based; settings: in vivo, 2 h
[36] = test system: Thyroid gland; experiment: Biodistribution in BALB/c mouse thyroid at 7 to 8 KBq, iv after 15 mins; type: ADME, organism-based; settings: in vivo, 0.25 h
[37] = test system: Hippocampus; experiment: Biodistribution in BALB/c mouse hippocampus at 7 to 8 KBq, iv after 15 mins; type: ADME, organism-based; settings: in vivo, 0.25 h
[38] = test system: Cortex; experiment: Biodistribution in BALB/c mouse cortex at 7 to 8 KBq, iv after 5 mins; type: ADME, organism-based; settings: in vivo

`CN1CCN(C2=Nc3cc([125I])ccc3Nc3ccccc32)CC1` [[125I]I-OZAPINE] gave a Drug uptake [1] of 9.8 %ID, a Drug uptake [2] of 4.97 %ID and a Drug uptake [3] of 4.71 %ID. The Drug uptake [4] was 3.31 %ID, the Drug uptake [5] was 1.19 %ID and the Drug uptake [6] was 4.61 %ID. The Drug uptake [7] was 7.35 %ID, the Drug uptake [8] was 2.79 %ID and the Drug uptake [9] was 0.05 %ID. It also gave a Drug uptake [10] of 0.1 %ID, a Drug uptake [11] of 17.73 %ID and a Drug uptake [12] of 0.27 %ID. It also gave a Drug uptake [13] of 1.2 %ID, a Drug uptake [14] of 1.56 %ID and a Drug uptake [15] of 6.65 %ID. It also gave a Drug uptake [16] of 0.16 %ID, a Drug uptake [17] of 1.02 %ID and a Drug uptake [18] of 17.41 %ID. It also gave a Drug uptake [19] of 2.05 %ID, a Drug uptake [20] of 3.49 %ID and a Drug uptake [21] of 3.49 %ID. For the same compound, the Drug uptake [22] was 6.16 %ID, the Drug uptake [23] was 0.12 %ID and the Drug uptake [24] was 5.23 %ID. For the same compound, the Drug uptake [25] was 6.15 %ID, the Drug uptake [26] was 1.77 %ID and the Drug uptake [27] was 2.52 %ID. For the same compound, the Drug uptake [28] was 7.82 %ID, the Drug uptake [29] was 15.02 %ID and the Drug uptake [30] was 35.19 %ID. It also gave a Drug uptake [31] of 0.94 %ID, a Drug uptake [32] of 4.01 %ID and a Drug uptake [33] of 11.12 %ID. It also gave a Drug uptake [34] of 3.56 %ID, a Drug uptake [35] of 34.13 %ID and a Drug uptake [36] of 0.13 %ID. The Drug uptake [37] was 6.64 %ID and the Drug uptake [38] was 7.22 %ID.

— ChEMBL document CHEMBL1139986, “Synthesis and biodistribution of 8-iodo-11-(4-methylpiperazino)-5H-dibenzo[b,e][1,4]-diazepine: Iozapine” (Bioorg Med Chem Lett, 2007)
